Measured values from US7691416B2, “Methods of treating vascular disease” (priority 2002, dated 2010).
Entries after “also recorded” stand apart in the source; their conditions may differ.

Legend:
[1] = system: intimal hyperplasia in Brown Norway aortic segments transplanted into Lewis rats; test: Aortic transplant model, histomorphometric analysis of intimal hyperplasia; type: in vivo, rat; conditions: CO 250 ppm after transplantation and for 56 days; vs air-exposed recipients; day 56; p<0.001
Excerpt: (§1) Animals. Male (250-350 g) Brown Norway rats (RT1^n) were used as aortic graft donors and male (250-350 g) Lewis rats (RT11) as recipients. Dawley (400-450 g) rats were used in the balloon injury model. Adult male C57BL/6, C57/S129, p21^−/− and p53^−/− null mice were purchased from Jackson Laboratory (Bar Harbor, Me.). mkk3^(−/−) null mice were generated as described Lu et al. (EMBO. 18:1845-1857 (1999)). The inos^−/− and enos^−/− mice were bred at the University of Pittsburgh. Aortic transplant model. Aortic transplantation was performed as described in Shimizu et al. (Nat. Med. 7:738-741 (2001)). Briefly, 3 to 4 cm of descending aorta was harvested from the donor and implanted between the renal arteries and the aortic bifurcation of the recipient. Both edges of the native abdominal aorta were ligated. Balloon injury model. Balloon angioplasty was carried out as described in Murakami et al. (Atherosclerosis 157:361-368 (2001)). […] [^3H]thymidine incorporation was measured by scintillation spectroscopy and presented as mean counts/min/well. […] Areas from eight to ten captured images were calculated using digital imaging software as number of pixels corresponding to those areas. Twenty-four to forty-eight sections from each group were statistically analyzed with SPSS software version 10. […]

rat SMC = test: SMC proliferation, cell counts; type: cell-based
Excerpt: as §1

rat aortic SMC = test: Flow cytometry cell cycle analysis; type: cell-based; conditions: CO 250 ppm, 24 hours
Excerpt: as §1

SMC = test: Trypan blue and propidium iodide exclusion analyses; type: cell-based; conditions: SMC exposed to CO
Excerpt: as §1

PAI-1 [2] = test: Western blot of PAI-1 in SMC; type: cell-based; conditions: CO 250 ppm, 24 or 48 hours
Excerpt: as §1

PAI-1 [3] = test: PAI-1 protein in transplanted aortas (immunohistology and Western blot); type: in vivo, rat; conditions: 56 days after transplantation
Excerpt: as §1

SMILES: [C-]#[O+] [CO, carbon monoxide]
- Intimal hyperplasia, reduction versus control [1]: 61.4±12.9%
- Reversibility of the anti-proliferative effect (rat SMC; cessation of CO exposure (250 ppm) on day 6): reversible
- SMC proliferation (rat SMC; exposure to CO (1000 ppm, FIG. 4B)): suppressed
- Cell cycle distribution (rat aortic SMC): accumulated in the G0/G1 phase
- Cell death accompanying inhibition of SMC proliferation (SMC): not associated with cell death
- PAI-1 protein (PAI-1 [2]): slightly increased
- PAI-1 protein expression versus allogeneic aortas transplanted in the absence of CO (PAI-1 [3]): similar; also recorded: No decrease
